This assay concerns the target T1, memapsin 2 (Homo sapiens, UniProt P56817).
T1 construct: pET-11 vector-derived residues 1-15 of promemapsin 2-T1 (N, cleaved yes); made in house; host or cells: E. coli
The assay is described as follows: Inhibition of memapsin 2 proteolytic activity, fluorogenic substrate FS-2. Format: biochemical. The settings on record: for Vi/Vo: ratio of initial cleavage velocities of FS-2 with/without compound, enzyme and inhibitor concentrations equal (e.g., about 80 nM, 100 nM). As to the method: Ki is the inhibition equilibrium constant which indicates the ability of compounds to inhibit the β-secretase activity of memapsin 2 and memapsin 1. […] The K1 value is independent of the substrate, and converted from Ki apparent.
The Vi/Vo values depicted in Table 1 were determined at conditions under which the enzyme and inhibitor concentrations were equal (e.g., about 80 nM, 100 nM).
The relationship of Ki (independent of substrate concentration) to Kiapp is a function of substrate concentration in the assay and the Km for cleavage of the substrate by either memapsin 1 or memapsin 2 by the relationship:
The spontaneously activated memapsin 2 was employed in assays to assess the inhibition of memapsin 2 relative to memapsin 1 by compounds of the invention and in some crystallization studies.
An aliquot of the inhibitor of known concentration in DMSO was diluted into 1.8 ml 0.1 M NaOAc, pH 4.0. DMSO and added to a final concentration of 10% (v/v), and memapsin 2 (final concentration of 80 nM), followed by a 20 minute equilibration at 37° C. Compounds were evaluated for the ability to inhibit memapsin 1 and memapsin 2 at concentrations between about 10 nM and about 10 μm of inhibitor.

Where [1] appears, read: memapsin 2, apparent Ki in presence of substrate FS-2, read-out: Ki app.
Setting [2] is: memapsin 2, independent of substrate, converted from Ki apparent, read-out: Ki.

Like-named read-outs stand apart in the source and are kept apart here.

T1 sequence (P56817 41-454 limits assumed): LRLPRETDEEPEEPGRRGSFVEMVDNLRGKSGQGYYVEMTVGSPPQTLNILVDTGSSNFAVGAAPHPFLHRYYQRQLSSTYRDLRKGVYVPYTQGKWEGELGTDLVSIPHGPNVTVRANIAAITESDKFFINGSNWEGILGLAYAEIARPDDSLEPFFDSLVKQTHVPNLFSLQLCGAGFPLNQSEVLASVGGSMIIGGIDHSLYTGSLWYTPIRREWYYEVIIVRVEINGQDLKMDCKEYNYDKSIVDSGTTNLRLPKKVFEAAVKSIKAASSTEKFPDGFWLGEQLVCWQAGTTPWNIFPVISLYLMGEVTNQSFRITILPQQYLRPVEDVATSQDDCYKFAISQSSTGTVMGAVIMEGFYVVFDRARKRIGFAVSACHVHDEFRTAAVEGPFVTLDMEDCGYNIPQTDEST

On to `CSCC[C@@H](NC(=O)[C@H](CC(C)C)NC(=O)OC(C)(C)C)C(=O)N[C@@H](CC(C)C)[C@@H](O)C[C@@H](C)C(=O)N[C@H](C(=O)NCc1ccccc1)C(C)C` [MMI-104], for which the Ki was 831 nM under setting [1] and 520 nM under setting [2].

Regarding `CC(C)C[C@H](NC(=O)OC(C)(C)C)C(=O)N[C@H](CCS(C)(=O)=O)C(=O)N[C@@H](CC(C)C)[C@@H](O)C[C@@H](C)C(=O)N[C@H](C(=O)NCc1ccccc1)C(C)C` [MMI-105], the Ki by setting is: under setting [1], 201 nM; under setting [2], 125 nM.

For the molecule `CSCC[C@H](NC(=O)[C@H](CC(C)C)NC(=O)OC(C)(C)C)C(=O)N[C@@H](CC(C)C)[C@H](O)C[C@@H](C)C(=O)N[C@H](C(=O)NCc1ccccc1)C(C)C` [MMI-113], the Ki by setting is: under setting [1], 99.9 nM; under setting [2], 62.1 nM.

Take `CSCC[C@@H](COC(=O)N[C@@H](CC(C)C)[C@@H](O)C[C@@H](C)C(=O)N[C@H](C(=O)NCc1ccccc1)C(C)C)NC(=O)[C@@H](NC(=O)OC(C)(C)C)C(C)C` [MMI-114]: the Ki is, setting by setting: under setting [1], 441 nM; under setting [2], 276 nM.

As to `CSCC[C@H](NC(=O)NCc1ccco1)C(=O)N[C@@H](CC(C)C)[C@@H](O)C[C@@H](C)C(=O)N[C@H](C(=O)NCc1ccccc1)C(C)C` [MMI-115], the Vi/Vo amounted to 1.04. For the same molecule, under setting [1], the Ki was 378 nM. For the same molecule, under setting [2], the Ki was determined as 236 nM.

For `CSCC[C@H](NC(=O)NCc1ccco1)C(=O)N[C@@H](CC(C)C)[C@@H](O)C[C@@H](C)C(=O)N[C@H](C(=O)NCc1ccccc1)C(C)C` [MMI-117], the Vi/Vo turned out to be 0.57.

Consider `CSCC[C@H](NC(=O)OCc1ccoc1)C(=O)N[C@@H](CC(C)C)[C@@H](O)C[C@@H](C)C(=O)N[C@H](C(=O)NCc1ccccc1)C(C)C` [MMI-118], for which the Vi/Vo is recorded as 0.48. In addition, the Ki under setting [1] was 311 nM. Also, the Ki under setting [2] was found to be 194 nM.

`CSCC[C@H](NC(=O)OCc1ccco1)C(=O)N[C@@H](CC(C)C)[C@@H](O)C[C@@H](C)C(=O)N[C@H](C(=O)NCc1ccccc1)C(C)C` [MMI-119]: the Vi/Vo was 0.38.

For `CSCC[C@H](NC(=O)c1cccc(O)c1C)C(=O)N[C@@H](CC(C)C)[C@@H](O)C[C@@H](C)C(=O)N[C@@H](CC(C)C)C(=O)NCc1ccccc1` [MMI-120], the Vi/Vo turned out to be 0.66. For the setting “Ki, [I] < 100, memapsin 2, [I] < 100 (nM)”, this molecule displayed a Ki of 175 nM. The Ki under setting [1] came out at 1800 nM. Under setting [2], the Ki came out at 1130 nM.

In the case of `CSCC[C@H](NC(=O)[C@@H](NC(=O)c1cccc(O)c1C)C(C)C)C(=O)N[C@@H](CC(C)C)[C@@H](O)C[C@@H](C)C(=O)N[C@@H](CC(C)C)C(=O)NCc1ccccc1` [MMI-121], the Ki came to 9550 nM under setting [1] and 5970 nM under setting [2].

Take `Cc1c(O)cccc1C(=O)N[C@H](C(=O)N[C@@H](CCS(C)(=O)=O)C(=O)N[C@@H](CC(C)C)[C@@H](O)C[C@@H](C)C(=O)N[C@@H](CC(C)C)C(=O)NCc1ccccc1)C(C)C` [MMI-122]: the Vi/Vo is recorded as 1.17.

`Cc1c(O)cccc1C(=O)N[C@@H](CCS(C)(=O)=O)C(=O)N[C@@H](CC(C)C)[C@@H](O)C[C@@H](C)C(=O)N[C@@H](CC(C)C)C(=O)NCc1ccccc1` [MMI-123]: the Vi/Vo came out at 0.61.

Regarding `CSC[C@H](NC(=O)OCc1ccccn1)C(=O)N[C@@H](CC(C)C)[C@@H](O)C[C@@H](C)C(=O)N[C@@H](CC(C)C)C(=O)NCc1ccccc1` [MMI-124], the Vi/Vo turned out to be 0.93.

As to `CSC[C@H](NC(=O)OCc1ccccn1)C(=O)N[C@@H](CC(C)C)[C@@H](O)C[C@@H](C)C(=O)N[C@H](C(=O)NCc1ccccc1)C(C)C` [MMI-125], the Vi/Vo stood at 0.76.

Regarding `CC(C)C[C@H](NC(=O)[C@H](C)C[C@H](O)[C@H](CC(C)C)NC(=O)[C@H](CS(C)(=O)=O)NC(=O)OCc1ccccn1)C(=O)NCc1ccccc1` [MMI-126], the Vi/Vo is recorded as 0.72.

Turning to `CSCC[C@H](NC(=O)OCc1ccc(CN(C)C)o1)C(=O)N[C@@H](CC(C)C)[C@@H](O)C[C@@H](C)C(=O)N[C@H](C(=O)NCc1ccccc1)C(C)C` [MMI-127], the Ki is, setting by setting: under setting [1], 6840 nM; under setting [2], 4280 nM.

Turning to `CC(C)C[C@H](NC(=O)[C@H](CS(C)(=O)=O)NC(=O)OCc1ccncc1)[C@@H](O)C[C@@H](C)C(=O)N[C@H](C(=O)NCc1ccccc1)C(C)C` [MMI-128], the Vi/Vo was 0.66.

In the case of `CC(C)C[C@H](NC(=O)[C@H](CCS(C)(=O)=O)NC(=O)OCc1ccc(CN(C)C)o1)[C@@H](O)C[C@@H](C)C(=O)N[C@H](C(=O)NCc1ccccc1)C(C)C` [MMI-129], the Vi/Vo was found to be 1.01.

On to `CSCC[C@H](NC(=O)[C@@H](NC(=O)OC(C)(C)C)C(C)C)C(=O)N[C@@H](CC(C)C)[C@@H](O)C[C@@H](C)C(=O)N[C@@H](C(C)C)C1CCCCO1` (some centres unmarked) [MMI-130], for which the Ki under setting [2] came to 68600 nM.

As to `CSCC[C@H](NC(=O)[C@@H](NC(=O)OC(C)(C)C)C(C)C)C(=O)N[C@@H](CC(C)C)[C@@H](O)C[C@@H](C)C(=O)N[C@@H](C(C)C)C1CCCCO1` (some centres unmarked) [MMI-131], the Ki under setting [1] turned out to be 92900 nM and the Ki under setting [2] came to 58100 nM.

With `CSCC[C@H](NC(=O)[C@H](CC(C)C)NC(=O)OC(C)(C)C)C(=O)N[C@@H](CC(C)C)[C@H](O)C[C@H](C)C(=O)N[C@H](C(=O)NCc1ccccc1)C(C)C` [MMI-133], the Vi/Vo was determined as 0.09. Further, under setting [1], the Ki is 0.52 nM. In addition, under setting [2], the Ki turned out to be 0.33 nM.

As for `CC(C)CNC(=O)[C@@H](NC(=O)[C@H](C)C[C@H](O)[C@H](CC(C)C)NC(=O)[C@H](CCS(C)(=O)=O)NC(=O)[C@H](CC(C)C)NC(=O)OC(C)(C)C)C(C)C` [MMI-135], the Vi/Vo is listed as 0.12. The Ki under setting [1] stood at 10.3 nM. The Ki under setting [2] was 6.46 nM.

Take `CC(C)C[C@H](NC(=O)[C@H](CCS(C)(=O)=O)NC(=O)OCc1ccco1)[C@@H](O)C[C@@H](C)C(=O)N[C@H](C(=O)NCc1ccccc1)C(C)C` [MMI-136]: the Vi/Vo is on record as 0.87.

`CC(C)C[C@H](NC(=O)[C@H](CCS(C)(=O)=O)NC(=O)OCc1ccoc1)[C@@H](O)C[C@@H](C)C(=O)N[C@H](C(=O)NCc1ccccc1)C(C)C` [MMI-137]: the Vi/Vo amounted to 0.85.

For `CSCC[C@H](NC(=O)[C@@H](NC(=O)OC(C)(C)C)C(C)C)C(=O)N[C@@H](CC(C)C)[C@@H](O)C[C@@H](C)C(=O)N[C@@H](C(C)C)C1CC(Cc2ccccc2)CC(=O)O1` (some centres unmarked) [MMI-140], the Ki by setting is: under setting [1], 38700 nM; under setting [2], 24200 nM.

As to `CSCC[C@H](NC(=O)[C@@H](NC(=O)OC(C)(C)C)C(C)C)C(=O)N[C@@H](CC(C)C)[C@@H](O)C[C@@H](C)C(=O)N[C@@H](C(C)C)C1CC(Cc2ccccc2)CC(=O)O1` (some centres unmarked) [MMI-141], the Ki worked out at 30000 nM under setting [1] and 18800 nM under setting [2].

With `CC(C)C[C@H](NC(=O)[C@H](CS(C)(=O)=O)NC(=O)OCc1cccnc1)[C@@H](O)C[C@@H](C)C(=O)N[C@H](C(=O)NCc1ccccc1)C(C)C` [MMI-142], the Vi/Vo is given as 0.92.

For `CC(C)C[C@H](NC(=O)[C@H](C)C[C@H](O)[C@H](CC(C)C)NC(=O)[C@H](CS(C)(=O)=O)NC(=O)OCc1cccnc1)C(=O)NCc1ccccc1` [MMI-143], the Vi/Vo was determined as 1.

Turning to `CC(C)C[C@H](NC(=O)[C@H](CS(C)(=O)=O)NC(=O)OCc1ccncc1)[C@@H](O)C[C@@H](C)C(=O)N[C@H](C(=O)NCc1ccccc1)C(C)C` [MMI-144], the Vi/Vo is recorded as 1.03.

Consider `C=C(C[C@H](O)[C@H](CC(C)C)NC(=O)[C@H](CCSC)NC(=O)[C@@H](NC(=O)OC(C)(C)C)C(C)C)C(=O)N[C@H](C(=O)NCc1ccccc1)C(C)C` [MMI-145], for which the Vi/Vo is reported as 0.84.

As to `CSCC[C@H](NC(=O)[C@@H](NC(=O)OC(C)(C)C)C(C)C)C(=O)N[C@@H](CC(C)C)[C@@H](O)C[C@@H](C)C(=O)N[C@@H](C(C)C)C1CC(Cc2ccccc2)CCO1` (some centres unmarked) [MMI-146-A], the Vi/Vo is 1.07.

In the case of `CSCC[C@H](NC(=O)[C@@H](NC(=O)OC(C)(C)C)C(C)C)C(=O)N[C@@H](CC(C)C)[C@@H](O)C[C@@H](C)C(=O)N[C@@H](C(C)C)C1CC(Cc2ccccc2)CCO1` (some centres unmarked) [MMI-146-S], the Vi/Vo was 1.04.

Turning to `CSCC[C@H](NC(=O)[C@@H](NC(=O)OC(C)(C)C)C(C)C)C(=O)N[C@@H](CC(C)C)[C@@H](O)C[C@@H](C)C(=O)N[C@@H](C(C)C)C1CC(Cc2ccccc2)CCO1` (some centres unmarked) [MMI-147], the Vi/Vo is reported as 1.1.

For the molecule `C=CCNC(=O)C[C@H](NC(=O)[C@@H](NC(=O)OCC=C)C(C)C)C(=O)N[C@@H](CC(C)C)[C@@H](O)C[C@@H](C)C(=O)N[C@H](C(=O)NCc1ccccc1)C(C)C` [MMI-148], the Vi/Vo amounted to 0.46. Further, under setting [1], the Ki was 25.9 nM. Further, under setting [2], the Ki came to 16.2 nM.

As to `CC(C)C[C@H](NC(=O)[C@@H]1CC(=O)NC/C=C\COC(=O)N[C@@H](C(C)C)C(=O)N1)[C@@H](O)C[C@@H](C)C(=O)N[C@H](C(=O)NCc1ccccc1)C(C)C` [MMI-149], the Vi/Vo came out at 0.66.

As to `CC(C)C[C@H](NC(=O)[C@@H]1CC(=O)NCCCCOC(=O)N[C@@H](C(C)C)C(=O)N1)[C@@H](O)C[C@@H](C)C(=O)N[C@H](C(=O)NCc1ccccc1)C(C)C` [MMI-150], the Vi/Vo came to 0.8.

Consider `C=CCCOC(=O)N[C@H](C(=O)N[C@@H](CC(=O)NCC=C)C(=O)N[C@@H](CC(C)C)[C@@H](O)C[C@@H](C)C(=O)N[C@H](C(=O)NCc1ccccc1)C(C)C)C(C)C` [MMI-151], for which the Vi/Vo came to 0.56.
